Patent US8362267B2, “Benzophenone thiazole derivatives useful for inhibiting formation of microtubule and method for producing the same” (Chong Kun Dang Pharmaceutical Corp., priority 2008, dated 2013)
Values after ≈ are worked out from the molar mass of the structure shown. Like-named read-outs stand apart in the source and are kept apart here. Values belong to the compound of their own block, whether it stands above or below them.

Columns and labels:
[1] = test system: A549 (human lung carcinoma, CCL-185); assay: In vivo antitumor activity, human xenograft, lung cancer model A549
Description: (§1) BALB/c male nude mice (4 weeks) available from Central Lab Animal Inc. were used for human xenograft experiments. Sterile food and potable water were freely provided to the mice in an isolated sterile cage and the temperature of the cage was maintained at 23±0.5° C.
(§2) A human cancer model, CX-1 (human colon adenocarcinoma), for xenograft experiment was obtained from the German Cancer Research Center (DKFZ), and HCT-15 (human colorectal adenocarcinoma, CCL-225) and A549 (human lung carcinoma, CCL-185) were obtained from ATCC (American Type Culture Collection, Rockville, Md., USA). Human tumor cells, MKN45 (human gastric adenocarcinoma, #80103) and calu-6 (human lung carcinoma, #30056) were obtained from KCLB (Korean Cell Line. Bank).
(§3) CX-1 was incubated in a 95% air incubator (37° C., 5% CO2) using a DMEM (Dulbecco's Modified Eagle's Medium, Gibco) supplemented with 10% heat-inactivated fetal bovine serum (Gibco) and 1% Antibiotics-Antimycotics (Gibco). Other cell lines were incubated in a 95% air incubator (37° C., 5% CO2) using an RPM1640 (Gibco BRL) medium supplemented with 10% heat-inactivated fetal bovine serum (Gibco) and 1% Antibiotics-Antimycotics (Gibco).
(§4) In vivo human xenograft experiments were performed in accordance with the following procedure. In vitro proliferated human-derived cancer cell lines (CX-1, HCT-15, A549, MKN45, calu-6) were subcutaneously injected into the abdominal region of BALB/c nude mice and were thus proliferated in vivo. After 20 to 25 days, the mice were sacrificed by cervical spine dislocation, solid cancer cells proliferated in the mice were sterilely separated and fresh cancer cells from which connective or necrotic tissues or skin were removed were collected. The fragments of tumor were transplanted to the BALB/c nude mice.
(§5) The mice in which cancer cells were proliferated to a predetermined size were collected on the 15th to 30th day after human-derived cancer models were transplanted into the BALB/c nude mice and then used for the tests. For each experimental group, the drug was injected at a dose of 0.1 mL per 10 g of mouse in accordance with a dose schedule, when tumor cells were grown to a size of 100 to 200 mm^3 after tumor transplantation.
(§6) After administration, antitumor activity was evaluated based upon an antitumor inhibition rate (IR %) of tumor growth, obtained by comparing a tumor volume measured on the final day with a tumor volume of a control group. As the reference drug, AC7700 (Sanofi-Aventis), which is currently undergoing phase III clinical trials, was used. Tumor size=(short diameter)^2×(long diameter)/2 I.R.(%)=[1−(average tumor size of drug-administered group)/(average tumor size of control group)]×100

[2] = test system: HCT-15 (human colorectal adenocarcinoma, CCL-225); assay type: in vivo; details: HCT-15 xenograft, q4d x 4 (i.p.)
Description: as §1, §2, §3, §4, §5, §6

[3] = test system: MKN45 (human gastric adenocarcinoma, #80103); assay: In vivo antitumor activity, human xenograft, stomach cancer model MKN45
Description: as §1, §2, §3, §4, §5, §6

[4] = test system: CX-1 (human colon adenocarcinoma); assay: In vivo antitumor activity, human xenograft, colorectal cancer model CX-1; parameters: species or system BALB/c nude mice; details: for weight loss / animal death / pharmaceutical effects as compared to the reference drug, AC7700: CX-1 xenograft model; for weight loss: as compared to the compound 516, in words; for animal death / pharmaceutical effects as compared to the reference drug, AC7700: in words; for Body weight change (%) / IR (%) / Number of dead animals: q4d x 4 (i.p.)
Description: as §1, §4, §5, §6

[5] = test system: calu-6 (human lung carcinoma, #30056); assay: In vivo antitumor activity, human xenograft, non-small cell lung cancer model calu-6
Description: as §1, §2, §3, §4, §5, §6

[6] = Measurement of solubility in water (HPLC); assay type: physicochemical; details: thermodynamic from solid; in distilled water, 25° C.
Description: The compounds of the present invention were developed to reduce toxicity caused by deposition on organ due to low solubility of compound 516, as confirmed by animal tests. Considering this, solubility of the present compounds in water was thus measured.
The compound was dissolved in acetonitrile to a concentration of 1 mg/mL and the solution was diluted with a mobile phase to a concentration of 5, 12.5, 25, 50 or 100 μg/ml.
1. The compound was added to distilled water such that the concentration of each specimen was adjusted to 10 mg/mL, stirred in a thermostat stirrer (25° C., 200 rpm) for about 7 days, filtered and diluted with a mobile phase to an optimal concentration.
2. The compound was added to distilled water such that the concentration of each specimen was adjusted to 10 mg/mL, sonicated for 30 minutes, stirred for 5 minutes, filtered, sonicated for 30 minutes again and diluted with a mobile phase to an optimal concentration.
Column temperature: 25° C.
Column: Kromasil C8 (4.6×150 mm, 5 μm)
Mobile phase: 20 mM ammonium acetate, pH 5.0/ACN (60/40)

[7] = A549 xenograft, 5 mg/kg, q4d x 4 (i.p.)
[8] = A549 xenograft, 7.5 mg/kg, q4d x 4 (i.p.)
[9] = A549 xenograft, 10 mg/kg, q4d x 4 (i.p.)
[10] = MKN45 xenograft, 5 mg/kg, q4d x 4 (i.p.)
[11] = MKN45 xenograft, 7.5 mg/kg, q4d x 4 (i.p.)
[12] = MKN45 xenograft, 10 mg/kg, q4d x 4 (i.p.)
[13] = Table 4, CX-1 xenograft, 5 mg/kg
[14] = Table 4, CX-1 xenograft, 10 mg/kg
[15] = calu-6 xenograft, 5 mg/kg, q4d x 4 (i.p.)
[16] = calu-6 xenograft, 7.5 mg/kg, q4d x 4 (i.p.)
[17] = calu-6 xenograft, 10 mg/kg, q4d x 4 (i.p.)
[18] = Table 4, CX-1 xenograft, 20 mg/kg
[19] = A549 xenograft, 80 mg/kg, q4d x 4 (i.p.)
[20] = MKN45 xenograft, 80 mg/kg, q4d x 4 (i.p.)
[21] = Table 3, CX-1 xenograft, 100 mg/kg
[22] = Table 4, CX-1 xenograft, 100 mg/kg
[23] = calu-6 xenograft, 80 mg/kg, q4d x 4 (i.p.)
[24] = Table 3, CX-1 xenograft, 5 mg/kg

Structure (SMILES): COc1cc(C(=O)c2ccc(-c3csc(NC(=O)[C@@H](N)C(C)C)n3)cc2-n2cncn2)cc(OC)c1OC [Compound 624, (S)—N-(4-(3-(1H-1,2,4-triazol-1-yl)-4-(3,4,5-trimethoxybenzoyl)phenyl)thiazol-2-yl)-2-amino-3-methylbutanamide]
pharmaceutical effects as compared with the reference drug ([1]; A549 xenograft model, in words): significantly superior pharmaceutical effects
Body weight change (%) [1, 7]: −1.7%
IR (%) [1, 7]: 39%
Body weight change (%) [1, 8]: +1.7%
IR (%) [1, 8]: 61%
Body weight change (%) [1, 9]: −1.2%
IR (%) [1, 9]: 71%
Body weight change (%) ([2]; 5 mg/kg): +1.8%
IR (%) ([2]; 5 mg/kg): 12%
Body weight change (%) ([2]; 7.5 mg/kg): +3.2%
IR (%) ([2]; 7.5 mg/kg): 63%
Body weight change (%) ([2]; 10 mg/kg): +6.6%
IR (%) ([2]; 10 mg/kg): 69%
pharmaceutical effects as compared with the reference drug ([3]; MKN45 xenograft model, in words): significantly superior pharmaceutical effects
Body weight change (%) [3, 10]: −11.8%
IR (%) [3, 10]: 21%
Body weight change (%) [3, 11]: +2.9%
IR (%) [3, 11]: 46%
Body weight change (%) [3, 12]: +4.3%
IR (%) [3, 12]: 68%
weight loss [4]: no weight loss
animal death [4]: no animal death
pharmaceutical effects as compared to the reference drug, AC7700 [4]: significantly superior pharmaceutical effects
Body weight change (%) [4, 13]: +25.7%
IR (%) [4, 13]: 28%
Body weight change (%) [4, 14]: +14.7%
IR (%) [4, 14]: 64%
pharmaceutical effects as compared with the reference drug ([5]; calu-6 xenograft model, in words): significantly superior pharmaceutical effects
Body weight change (%) [5, 15]: +26.2%
IR (%) [5, 15]: 41%
Body weight change (%) [5, 16]: +26.0%
IR (%) [5, 16]: 73%
Body weight change (%) [5, 17]: +20.6%
IR (%) [5, 17]: 82%
solubility [6]: 14.9 mg/mL (≈ 27.8 mM)

Structure (SMILES): COc1cc(C(=O)c2ccc(-c3csc(NC(=O)CN(C)C)n3)cc2-n2cncn2)cc(OC)c1OC [Compound 631, N-(4-(3-(1H-1,2,4-triazol-1-yl)-4-(3,4,5-trimethoxybenzoyl)phenyl)thiazol-2-yl)-2-(dimethylamino)acetamide]
weight loss [4]: no weight loss
animal death [4]: no animal death
pharmaceutical effects as compared to the reference drug, AC7700 [4]: significantly superior pharmaceutical effects
Body weight change (%) [4, 13]: +24.8%
IR (%) [4, 13]: 23%
Body weight change (%) [4, 14]: +26.7%
IR (%) [4, 14]: 20%
Body weight change (%) [4, 18]: +20.9%
IR (%) [4, 18]: 37%

solubility [6]: 23.3 mg/mL (≈ 47.1 mM)
Structure (SMILES): COc1cc(C(=O)c2ccc(-c3csc(NC(=O)CN)n3)cc2-n2cncn2)cc(OC)c1OC [Compound 615, N-(4-(3-(1H-1,2,4-triazol-1-yl)-4-(3,4,5-trimethoxybenzoyl)phenyl)thiazol-2-yl)-2-aminoacetamide]

Structure (SMILES): COc1ccc(/C=C\c2cc(OC)c(OC)c(OC)c2)cc1NC(=O)[C@@H](N)CO [AC7700, reference compound]
Body weight change (%) [1, 19]: +2.6%
IR (%) [1, 19]: 64%
Number of dead animals [1, 19]: 0/7
Body weight change (%) ([2]; 80 mg/kg): +5.5%
IR (%) ([2]; 80 mg/kg): 66%
Number of dead animals ([2]; 80 mg/kg): 1/6
Body weight change (%) [3, 20]: +7.8%
IR (%) [3, 20]: 55%
Number of dead animals [3, 20]: 0/6
Body weight change (%) [4, 21]: +13.2%
Number of dead animals [4, 21]: 2/6
IR (%) ([4]; Table 3, CX-1 xenograft, 100 mg/kg, tumor volume on final day vs control): 48%
Body weight change (%) [4, 22]: +22.8%
IR (%) [4, 22]: 34%
Number of dead animals [4, 22]: 0/6
Body weight change (%) [5, 23]: +22.4%
IR (%) [5, 23]: 80%
Number of dead animals [5, 23]: 0/6

Structure (SMILES): COc1cc(C(=O)c2ccc(-c3csc(NC(=O)[C@@H](N)Cc4ccccc4)n3)cc2-n2cncn2)cc(OC)c1OC [Compound 625]
weight loss [4]: no weight loss
animal death [4]: no animal death
pharmaceutical effects as compared to the reference drug, AC7700 [4]: significantly superior pharmaceutical effects
Body weight change (%) [4, 13]: +28.9%
IR (%) [4, 13]: 21%
Body weight change (%) [4, 14]: +24.5%
IR (%) [4, 14]: 43%
solubility [6]: 11 mg/mL (≈ 18.8 mM)

Structure (SMILES): COc1cc(C(=O)c2ccc(-c3csc(N)n3)cc2-n2cncn2)cc(OC)c1OC [Compound 516, {4-(2-aminothiazol-4-yl)-2-(1H-1,2,4-triazol-1-yl)phenyl}(3,4,5-trimethoxyphenyl)methanone, reference compound]
animal death [4]: two animals died
pharmaceutical effects as compared to the reference drug, AC7700 [4]: significantly superior pharmaceutical effects
Body weight change (%) [4, 24]: +15.2%
Number of dead animals [4, 24]: 2/6
IR (%) ([4]; Table 3, CX-1 xenograft, 5 mg/kg, tumor volume on final day vs control): 36%
solubility [6]: 0.5 mg/mL (≈ 1.14 mM)

solubility [6]: 12.1 mg/mL (≈ 22 mM)
Structure (SMILES): COc1cc(C(=O)c2ccc(-c3csc(NC(=O)[C@@H](N)CC(C)C)n3)cc2-n2cncn2)cc(OC)c1OC [Compound 647, (S)—N-(4-(3-(1H-1,2,4-triazol-1-yl)-4-(3,4,5-trimethoxybenzoyl)phenyl)thiazol-2-yl)-2-amino-4-methylpentanamide]
